Laboratory results published in US5693617A, “Inhibitors of the 26s proteolytic complex and the 20s proteasome contained therein” (ProScript, Inc., priority 1995, dated 1997).
Non-standard residues stand in square brackets, D forms with d. Residues, ends and D or L forms follow the SMILES beside them. ξ: configuration not given here. *: point of attachment. 1Nal = N[C@@H](Cc1cccc2ccccc12)C(=O)O; 2Nal = N[CH](Cc1ccc2ccccc2c1)C(=O)O; Cha = N[C@@H](CC1CCCCC1)C(=O)O; Ile(3ξ) = CCC(C)[C@H](N)C(=O)O; Nva = CCC[C@H](N)C(=O)O; Cbz = O=C(OCc1ccccc1)*; Boc = CC(C)(C)OC(=O)*; Bn = c1ccc(C*)cc1

What was measured:
[1] = molecular target: chymotrypsin-like activity of the proteasome; conditions: cited from earlier work; for Ki: Vinitsky et al. 1992, slow binding inhibitors
20S proteasome = molecular target: T1, 20S proteasome (Oryctolagus cuniculus, UniProt G1T4Q9); test: Inhibition of the 20S proteasome peptidase activity (kinetic experiments); format: biochemical, Rabbit; conditions: Rabbit muscle, SDS-activated, substrate Suc-LLVY-AMC; read-out: Ki 20S
T1 sequence (G1T4Q9 60-263): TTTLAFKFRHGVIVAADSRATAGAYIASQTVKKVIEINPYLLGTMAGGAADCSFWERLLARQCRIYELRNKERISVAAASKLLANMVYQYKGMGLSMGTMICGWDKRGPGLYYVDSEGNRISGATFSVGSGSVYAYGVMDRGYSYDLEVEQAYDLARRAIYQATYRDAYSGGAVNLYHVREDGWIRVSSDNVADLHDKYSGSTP
T1 sequence (G1SU71 1-241 partner): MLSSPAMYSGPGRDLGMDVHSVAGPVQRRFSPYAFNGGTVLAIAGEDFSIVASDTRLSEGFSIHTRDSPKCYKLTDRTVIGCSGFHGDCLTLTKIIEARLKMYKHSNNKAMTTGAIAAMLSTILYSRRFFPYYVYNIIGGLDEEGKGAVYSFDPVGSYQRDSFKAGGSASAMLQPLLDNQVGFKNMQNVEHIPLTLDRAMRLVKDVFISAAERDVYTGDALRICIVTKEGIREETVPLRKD
From the text: Tables I-III summarize results from kinetic experiments that measured the inhibition of the 20S and 26S proteasomes, as well as cathepsin B and calpain, enzymes that may also be involved in muscle protein turnover. In these tables, Ki values are reported, which are dissociation constants for the equilibrium that is established when enzyme and inhibitor interact to form the enzyme:inhibitor complex.
The substances and assay conditions are briefly summarized in the footnotes to Table I. MG 101 and MG 102, also known as Calpain Inhibitor I and II, were purchased from Calbiochem as catalogue products.
(^a) Rabbit muscle. SDSactivated. Substrate: SucLLVYAMC.

PC12 cells = conditions: Tsubuki et al. 1993; cited from earlier work

| SMILES | Ki (20S proteasome) [nM] | further results |
| --- | --- | --- |
| CSCC[C@@H](C=O)NC(=O)[C@H](CC(C)C)NC(=O)[C@H](CC(C)C)NC(C)=O [Ac-LLM-H, N-acetyl-Leu-Leu-methioninal] (Ac-Leu-Leu-Met-aldehyde) |  | Ki [1]: 33000 nM |
| CC(C)CC(C=O)NC(=O)C(Cc1ccc2ccccc2c1)NC(=O)OCc1ccccc1 (stereo not drawn) [MG 279, Z-Nal-Leu-H] (Cbz-[2Nal]-Leu-aldehyde; configuration not given here) | 24 |  |
| CCOC(=O)C(=O)[C@H](Cc1ccccc1)NC(=O)[C@H](CC(C)C)NC(=O)[C@H](CC(C)C)NC(=O)OCc1ccccc1 [Z-Leu-Leu-Phe-COOEt] |  | Ki [1]: 53000 nM |
| CC(C)C[C@@H](C=O)NC(=O)[C@H](CC(C)C)NC(=O)[C@H](CC(C)C)NC(=O)OCc1ccccc1 [Z-Leu-Leu-Leu-H, Z-L-Leucine-L-Leucine-L-Leucinal] (Cbz-Leu-Leu-Leu-aldehyde) |  | Optimal concentration for initiating neurite outgrowth (PC12 cells): 30 nM |
| CC(C)C[C@H](NC(=O)OCc1ccccc1)C(=O)N[C@@H](CC(C)C)C(=O)N[C@H](C=O)Cc1ccccc1 [MG 110, Z-Leu-Leu-Phe-H] (Cbz-Leu-Leu-Phe-aldehyde) |  | Ki [1]: 460 nM |
| CC(C)C[C@H](NC(=O)OCc1ccccc1)C(=O)N[C@@H](CC(C)C)C(=O)N[C@H](C=O)Cc1ccc(O)cc1 [MG 131] (Cbz-Leu-Leu-Tyr-aldehyde) | 7 |  |
| CC(C)C[C@H](NC(=O)OCc1ccccc1)C(=O)N[C@@H](CC(C)C)C(=O)N[C@H](C=O)CC1CCCCC1 [MG 129] (Cbz-Leu-Leu-[Cha]-aldehyde) | 74 |  |
| CCC(C)[C@@H](C=O)NC(=O)[C@H](CC(C)C)NC(=O)[C@H](CC(C)C)NC(=O)OCc1ccccc1 (stereo partly drawn) [MG 134] (Cbz-Leu-Leu-[Ile(3ξ)]-aldehyde) | 104 |  |
| CC(C)C[C@H](NC(=O)OCc1ccccc1)C(=O)N[C@@H](CC(C)C)C(=O)N[C@H](C=O)Cc1ccc(OCc2ccccc2)cc1 [MG 153] (Cbz-Leu-Leu-Tyr(Bn)-aldehyde) | 285 |  |
| CC(C)C[C@@H](C=O)NC(=O)[C@H](CC(C)C)NC(=O)[C@H](CC(C)C)NC(=O)OCc1ccccc1 [MG 132] (Cbz-Leu-Leu-Leu-aldehyde) | 4 |  |
| CCC[C@@H](C=O)NC(=O)[C@H](CC(C)C)NC(=O)[C@H](Cc1cccc2ccccc12)NC(=O)OCc1ccccc1 [MG 142] (Cbz-[1Nal]-Leu-[Nva]-aldehyde) | 0.2 |  |
| CC(C)C[C@@H](C=O)NC(=O)CNC(=O)CNC(=O)OCc1ccccc1 [Z-Gly-Gly-Leu-H] (Cbz-Gly-Gly-Leu-aldehyde) |  | Inhibition of the chymotrypsin-like activity of the proteasome ([1]; Orlowski 1990): inhibits the chymotrypsin-like activity of the proteasome |
| CC(C)C[C@@H](C=O)NC(=O)[C@H](CC(C)C)NC(=O)[C@H](CC(C)C)NC(=O)OC(C)(C)C [MG 155] (Boc-Leu-Leu-Leu-aldehyde) | 47 |  |
